Reference: patent publication US10738028B2, “Spiro three-membered ring, spiro five-membered ring peptide deformylase inhibitor and use thereof in antibacteria and anti-tumor” (priority 2016, dated 2020)
≈ marks a conversion by molar mass, not a printed value.

Experiments:
Format in all cases: cell-based
[1] = tested on: HCT-116 colorectal cancer cell line; test: CCK-8 proliferation inhibition; details: Homo sapiens, HCT-116, 72 h, concentration of 30 μM; 72 hours; CCK-8; read-out: HCT116 inhibition rate/%
How it was run: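 2000 cells/well, McCoy's 5A + 10% newborn bovine serum; overnight attach, 37° C./5% CO2. Cpd from DMSO stock diluted in medium, 72 h. Readout: CCK-8 (1:10). Ctrl 1‰ DMSO.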

[2] = tested on: methicillin-resistant Staphylococcus aureus (MRSA); test: MIC, two-fold agar dilution (CLSI), clinical isolates
Excerpt: (§1) 1. The invention adopts the two-fold agar dilution method recommended by the operating procedure of antimicrobial susceptibility testing set by American Clinical and Laboratory Standards Institute (CLSI) to determine the Minimum Inhibitory Concentration (MIC) of the test samples against the tested strains.

[3] = tested on: Enterococcus faecalis (EFA); test: as above
Excerpt: as §1

[4] = tested on: methicillin-sensitive Staphylococcus aureus (MSSA); test: as above
Excerpt: as §1

[5] = tested on: Escherichia coli (including ESBLs, non-ESBLs); test: as above
Excerpt: as §1

[6] = tested on: methicillin-resistant Staphylococcus epidermidis (MRSE); test: as above
Excerpt: as §1

[7] = tested on: Moraxella catarrhalis (BCA); test: as above; details: for Anti-bacterial activity (MIC), strain BCA 14-10: clinical isolate BCA 14-10
Excerpt: as §1

[8] = tested on: Streptococcus pneoumoniae (SPN); test: as above
Excerpt: as §1

[9] = tested on: methicillin-sensitive Staphylococcus epidermidis (MSSE); test: as above
Excerpt: as §1

[10] = tested on: Enterococcus faecium (EFM); test: as above
Excerpt: as §1

For O=CN(O)C[C@@H](CC1CCCC1)C(=O)N1CC2(CC2)C[C@H]1C(=O)Nc1ccno1 [Example 37, (S)-5-((R)-3-cyclopentyl-2-((N-hydroxyformamido)methyl)propionyl)-N-(isoxazol-5-yl)-5-azaspiro[2.4]heptane-6-carboxamide], the inhibition at 30 µM [1] was 16%, the MIC (anti-bacterial activity) ([2]; strain MRSA 15-1) was 0.5 µg/mL (≈ 1.24 µM) and the MIC (anti-bacterial activity) ([2]; strain MRSA 15-2) was 1 µg/mL (≈ 2.47 µM). It also gave an MIC (anti-bacterial activity) ([2]; strain MRSA 15-3) of 0.5 µg/mL (≈ 1.24 µM), an MIC (anti-bacterial activity) ([2]; strain MRSA 15-4) of 0.2 µg/mL (≈ 0.494 µM) and an MIC (anti-bacterial activity) ([3]; strain EFA 15-1) of 4 µg/mL (≈ 9.89 µM). The MIC (anti-bacterial activity) ([3]; strain EFA 15-2) was 4 µg/mL (≈ 9.89 µM), the MIC (anti-bacterial activity) ([3]; strain EFA 15-3) was 4 µg/mL (≈ 9.89 µM) and the MIC (anti-bacterial activity) ([3]; strain EFA 15-4) was 4 µg/mL (≈ 9.89 µM). For the same molecule, the MIC (anti-bacterial activity) ([3]; strain EFA 15-5) was 4 µg/mL (≈ 9.89 µM), the MIC (anti-bacterial activity) ([3]; strain EFA 15-6) was 4 µg/mL (≈ 9.89 µM) and the MIC (anti-bacterial activity) ([3]; strain EFA 15-9) was 4 µg/mL (≈ 9.89 µM). The MIC (anti-bacterial activity) ([4]; strain MSSA 15-3) was 1 µg/mL (≈ 2.47 µM), the MIC (anti-bacterial activity) ([4]; strain MSSA 15-4) was 1 µg/mL (≈ 2.47 µM) and the MIC (anti-bacterial activity) ([4]; strain MSSA 15-5) was 0.5 µg/mL (≈ 1.24 µM). It also gave an MIC (anti-bacterial activity) ([4]; strain MSSA 15-6) of 1 µg/mL (≈ 2.47 µM), an MIC (anti-bacterial activity) ([5]; strain ECO+ 15-1) of 32 µg/mL (≈ 79.1 µM) and an MIC (anti-bacterial activity) ([5]; strain ECO+ 15-2) of 32 µg/mL (≈ 79.1 µM). For the same molecule, the MIC (anti-bacterial activity) ([5]; strain ECO+ 15-3) was 32 µg/mL (≈ 79.1 µM), the MIC (anti-bacterial activity) ([5]; strain ECO+ 15-4) was 32 µg/mL (≈ 79.1 µM) and the MIC (anti-bacterial activity) ([5]; strain ECO− 15-1) was 32 µg/mL (≈ 79.1 µM). The MIC (anti-bacterial activity) ([5]; strain ECO− 15-2) was 32 µg/mL (≈ 79.1 µM), the MIC (anti-bacterial activity) ([5]; strain ECO− 15-3) was 32 µg/mL (≈ 79.1 µM) and the MIC (anti-bacterial activity) ([5]; strain ECO− 15-4) was 32 µg/mL (≈ 79.1 µM). For the same molecule, the MIC (anti-bacterial activity) ([6]; strain MRSE 15-1) was 0.5 µg/mL (≈ 1.24 µM), the MIC (anti-bacterial activity) ([6]; strain MRSE 15-2) was 1 µg/mL (≈ 2.47 µM) and the MIC (anti-bacterial activity) ([6]; strain MRSE 15-3) was 1 µg/mL (≈ 2.47 µM). For the same molecule, the MIC (anti-bacterial activity) ([6]; strain MRSE 15-7) was 1 µg/mL (≈ 2.47 µM), the Anti-bacterial activity (MIC), strain BCA 14-10 [7] was 3 µg/mL and the MIC (anti-bacterial activity) ([7]; strain BCA 14-1) was 2 µg/mL (≈ 4.94 µM). It also gave an MIC (anti-bacterial activity) ([7]; strain BCA 14-4) of 2 µg/mL (≈ 4.94 µM), an MIC (anti-bacterial activity) ([7]; strain BCA 14-5) of 2 µg/mL (≈ 4.94 µM) and an MIC (anti-bacterial activity) ([7]; strain BCA 14-6) of 2 µg/mL (≈ 4.94 µM). It also gave an MIC (anti-bacterial activity) ([7]; strain BCA 14-7) of 3 µg/mL (≈ 7.42 µM), an MIC (anti-bacterial activity) ([7]; strain BCA 14-8) of 2 µg/mL (≈ 4.94 µM) and an MIC (anti-bacterial activity) ([8]; strain SPN 16-2) of 0.5 µg/mL (≈ 1.24 µM). It also gave an MIC (anti-bacterial activity) ([8]; strain SPN 16-4) of 4 µg/mL (≈ 9.89 µM), an MIC (anti-bacterial activity) ([9]; strain MSSE 15-3) of 1 µg/mL (≈ 2.47 µM) and an MIC (anti-bacterial activity) ([9]; strain MSSE 15-4) of 1 µg/mL (≈ 2.47 µM). It also gave an MIC (anti-bacterial activity) ([9]; strain MSSE 15-5) of 1 µg/mL (≈ 2.47 µM), an MIC (anti-bacterial activity) ([9]; strain MSSE 15-6) of 1 µg/mL (≈ 2.47 µM) and an MIC (anti-bacterial activity) ([10]; strain EFM 15-1) of 2 µg/mL (≈ 4.94 µM). For the same molecule, the MIC (anti-bacterial activity) ([10]; strain EFM 15-2) was 2 µg/mL (≈ 4.94 µM), the MIC (anti-bacterial activity) ([10]; strain EFM 15-3) was 2 µg/mL (≈ 4.94 µM) and the MIC (anti-bacterial activity) ([10]; strain EFM 15-4) was 2 µg/mL (≈ 4.94 µM). It also gave an MIC (anti-bacterial activity) ([10]; strain EFM 15-5) of 1 µg/mL (≈ 2.47 µM) and an MIC (anti-bacterial activity) ([10]; strain EFM 15-6) of 2 µg/mL (≈ 4.94 µM).

With Cc1cc(NC(=O)[C@@H]2CC3(CC3)CN2C(=O)[C@H](CC2CCCC2)CN(O)C=O)no1 [Example 39] the inhibition at 30 µM [1] was -10%, the MIC (anti-bacterial activity) ([2]; strain MRSA 15-1) was 1 µg/mL (≈ 2.39 µM) and the MIC (anti-bacterial activity) ([2]; strain MRSA 15-2) was 1 µg/mL (≈ 2.39 µM). It also gave an MIC (anti-bacterial activity) ([2]; strain MRSA 15-3) of 1 µg/mL (≈ 2.39 µM), an MIC (anti-bacterial activity) ([2]; strain MRSA 15-4) of 1 µg/mL (≈ 2.39 µM) and an MIC (anti-bacterial activity) ([3]; strain EFA 15-1) of 4 µg/mL (≈ 9.56 µM). The MIC (anti-bacterial activity) ([3]; strain EFA 15-2) was 4 µg/mL (≈ 9.56 µM), the MIC (anti-bacterial activity) ([3]; strain EFA 15-3) was 1 µg/mL (≈ 2.39 µM) and the MIC (anti-bacterial activity) ([3]; strain EFA 15-4) was 4 µg/mL (≈ 9.56 µM). For the same molecule, the MIC (anti-bacterial activity) ([3]; strain EFA 15-5) was 4 µg/mL (≈ 9.56 µM), the MIC (anti-bacterial activity) ([3]; strain EFA 15-6) was 4 µg/mL (≈ 9.56 µM) and the MIC (anti-bacterial activity) ([3]; strain EFA 15-9) was 4 µg/mL (≈ 9.56 µM). It also gave an MIC (anti-bacterial activity) ([4]; strain MSSA 15-3) of 1 µg/mL (≈ 2.39 µM), an MIC (anti-bacterial activity) ([4]; strain MSSA 15-4) of 1 µg/mL (≈ 2.39 µM) and an MIC (anti-bacterial activity) ([4]; strain MSSA 15-5) of 1 µg/mL (≈ 2.39 µM). It also gave an MIC (anti-bacterial activity) ([4]; strain MSSA 15-6) of 1 µg/mL (≈ 2.39 µM), an MIC (anti-bacterial activity) ([5]; strain ECO+ 15-1) of 16 µg/mL (≈ 38.2 µM) and an MIC (anti-bacterial activity) ([5]; strain ECO+ 15-2) of 32 µg/mL (≈ 76.5 µM). It also gave an MIC (anti-bacterial activity) ([5]; strain ECO+ 15-3) of 32 µg/mL (≈ 76.5 µM), an MIC (anti-bacterial activity) ([5]; strain ECO+ 15-4) of 16 µg/mL (≈ 38.2 µM) and an MIC (anti-bacterial activity) ([5]; strain ECO− 15-1) of 32 µg/mL (≈ 76.5 µM). For the same molecule, the MIC (anti-bacterial activity) ([5]; strain ECO− 15-2) was 32 µg/mL (≈ 76.5 µM), the MIC (anti-bacterial activity) ([5]; strain ECO− 15-3) was 32 µg/mL (≈ 76.5 µM) and the MIC (anti-bacterial activity) ([5]; strain ECO− 15-4) was 32 µg/mL (≈ 76.5 µM). It also gave an MIC (anti-bacterial activity) ([6]; strain MRSE 15-1) of 1 µg/mL (≈ 2.39 µM), an MIC (anti-bacterial activity) ([6]; strain MRSE 15-2) of 1 µg/mL (≈ 2.39 µM) and an MIC (anti-bacterial activity) ([6]; strain MRSE 15-3) of 1 µg/mL (≈ 2.39 µM). For the same molecule, the MIC (anti-bacterial activity) ([6]; strain MRSE 15-7) was 1 µg/mL (≈ 2.39 µM), the Anti-bacterial activity (MIC), strain BCA 14-10 [7] was 0.5 µg/mL and the MIC (anti-bacterial activity) ([7]; strain BCA 14-1) was 1 µg/mL (≈ 2.39 µM). For the same molecule, the MIC (anti-bacterial activity) ([7]; strain BCA 14-4) was 1 µg/mL (≈ 2.39 µM), the MIC (anti-bacterial activity) ([7]; strain BCA 14-5) was 0.5 µg/mL (≈ 1.19 µM) and the MIC (anti-bacterial activity) ([7]; strain BCA 14-6) was 1 µg/mL (≈ 2.39 µM). It also gave an MIC (anti-bacterial activity) ([7]; strain BCA 14-7) of 1 µg/mL (≈ 2.39 µM), an MIC (anti-bacterial activity) ([7]; strain BCA 14-8) of 1 µg/mL (≈ 2.39 µM) and an MIC (anti-bacterial activity) ([8]; strain SPN 16-2) of 0.5 µg/mL (≈ 1.19 µM). It also gave an MIC (anti-bacterial activity) ([8]; strain SPN 16-4) of 4 µg/mL (≈ 9.56 µM), an MIC (anti-bacterial activity) ([9]; strain MSSE 15-3) of 1 µg/mL (≈ 2.39 µM) and an MIC (anti-bacterial activity) ([9]; strain MSSE 15-4) of 1 µg/mL (≈ 2.39 µM). The MIC (anti-bacterial activity) ([9]; strain MSSE 15-5) was 1 µg/mL (≈ 2.39 µM), the MIC (anti-bacterial activity) ([9]; strain MSSE 15-6) was 1 µg/mL (≈ 2.39 µM) and the MIC (anti-bacterial activity) ([10]; strain EFM 15-1) was 1 µg/mL (≈ 2.39 µM). For the same molecule, the MIC (anti-bacterial activity) ([10]; strain EFM 15-2) was 1 µg/mL (≈ 2.39 µM), the MIC (anti-bacterial activity) ([10]; strain EFM 15-3) was 0.5 µg/mL (≈ 1.19 µM) and the MIC (anti-bacterial activity) ([10]; strain EFM 15-4) was 1 µg/mL (≈ 2.39 µM). It also gave an MIC (anti-bacterial activity) ([10]; strain EFM 15-5) of 1 µg/mL (≈ 2.39 µM) and an MIC (anti-bacterial activity) ([10]; strain EFM 15-6) of 1 µg/mL (≈ 2.39 µM).
